Experimental findings from patent publication US20210353631A1, “1,4-Benzoxazines for the Treatment of Cancers and Other Neurodegenerative Diseases” (Neugeneron LLC, priority 2020, published 2021) are described below.

Each structure is given as a SMILES string.

Test [1] concerns the target T1, CIT (Homo sapiens, UniProt O14578).
T1 construct: purchased DiscoveRx/Eurofin
The test can be described thus: KINOMEscan kinome profiling (DiscoveRx/Eurofin platform). The class given is binding. The following applies: read-out: % control.

The target in test [2] is T2, CLK2 (Homo sapiens, UniProt P49760).
T2 construct: purchased DiscoveRx/Eurofin
The test is described as above. Format: binding. The conditions noted are these: read-out: % control.

The target of test [3] is T3, CSNK1A1 (Homo sapiens, UniProt P48729).
T3 construct: purchased DiscoveRx/Eurofin
The test is described as above. The following applies: read-out: % control. Format: binding.

In test [4] the target is T4, CSNK1G2 (Homo sapiens, UniProt P78368).
T4 construct: purchased DiscoveRx/Eurofin
Described as above. Format: binding. The conditions noted are these: read-out: % control.

The target of test [5] is T5, CSNK1G3 (Homo sapiens, UniProt Q9Y6M4).
T5 construct: purchased DiscoveRx/Eurofin
The test is described as above. The conditions noted are these: read-out: % control. The class given is binding.

The target of test [6] is T6, CSNK2A1 (Homo sapiens, UniProt P68400).
T6 construct: purchased DiscoveRx/Eurofin
The test is described as above. Format: binding. The conditions noted are these: read-out: % control.

For test [7], the target named is T7, DAPK1 (Homo sapiens, UniProt P53355).
T7 construct: purchased DiscoveRx/Eurofin
The description is as above. The following applies: read-out: % control. The class given is binding.

The target in test [8] is T8, DAPK2 (Homo sapiens, UniProt Q9UIK4).
T8 construct: purchased DiscoveRx/Eurofin
The description is as above. The class given is binding. The following applies: read-out: % control.

The target in test [9] is T9, DAPK3 (Homo sapiens, UniProt O43293).
T9 construct: purchased DiscoveRx/Eurofin
The test is described as above. The conditions noted are these: read-out: % control. The class given is binding.

The target in test [10] is T10, DCAMKL1 (DCLK1) (Homo sapiens, UniProt O15075).
T10 construct: purchased DiscoveRx/Eurofin
Described as above. Format: binding. The following applies: KINOMEscan DCAMKL1 (Entrez DCLK1), read-out: % control.

Test [11] addresses T11, DCAMKL3 (DCLK3) (Homo sapiens, UniProt Q9C098).
T11 construct: purchased DiscoveRx/Eurofin
The description is as above. Format: binding. The following applies: KINOMEscan DCAMKL3 (Entrez DCLK3), read-out: % control.

The target in test [12] is T12, DDR1 (Homo sapiens, UniProt Q08345).
T12 construct: purchased DiscoveRx/Eurofin
The test is described as above. The class given is binding. The following applies: read-out: % control.

In test [13] the target is T13, DLK (MAP3K12) (Homo sapiens, UniProt Q12852).
T13 construct: purchased DiscoveRx/Eurofin
The description is as above. The following applies: KINOMEscan DLK (Entrez MAP3K12), read-out: % control. Format: binding.

For test [14], the target named is T14, DMPK (Homo sapiens, UniProt Q09013).
T14 construct: purchased DiscoveRx/Eurofin
The test is described as above. Format: binding. The following applies: read-out: % control.

Test [15] has as its target T15, DRAK1/STK17a (Homo sapiens, UniProt Q9UEE5).
T15 construct: purchased DiscoveRx/Eurofin
The description is as above. The following applies: KINOMEscan DRAK1 (Entrez STK17A), read-out: % control. The class given is binding.

Test [16] has as its target T16, DRAK2 (STK17B) (Homo sapiens, UniProt O94768).
T16 construct: purchased DiscoveRx/Eurofin
The description is as above. Format: binding.

Test [17] addresses T17, DYRK1B (Homo sapiens, UniProt Q9Y463).
T17 construct: purchased DiscoveRx/Eurofin
Described as above. Format: binding. The conditions noted are these: read-out: % control.

The target of test [18] is T18, EGFR(G719C) (Homo sapiens, UniProt P00533, G719C).
T18 construct: purchased DiscoveRx/Eurofin
The description is as above. The class given is binding. The conditions noted are these: read-out: % control.

Test [19] addresses T19, EGFR(G719S) (Homo sapiens, UniProt P00533, G719S).
T19 construct: purchased DiscoveRx/Eurofin
The description is as above. The following applies: read-out: % control. The class given is binding.

Test [20] deals with T20, EGFR(L747-S752del, P753S) (Homo sapiens, UniProt P00533, DEL747-752/P753S).
T20 construct: purchased DiscoveRx/Eurofin
The test is described as above. Format: binding. The following applies: read-out: % control.

Test [21] deals with cortical neurons. The test is described as follows: Neuroprotection in cortical neurons treated with homocysteic acid (HCA). Format: cell-based. The conditions noted are these: cortical neurons treated with HCA (oxidative stress); 5 uM and 25 uM for 18 h; single experiment in duplicate. As to the method: FIGS. 1A to 1C, show: (FIG. 1A) Chemical structure of NGN-006. (FIG. 1B) Neuroprotection in cerebellar granule neurons (CGNs) induced to die by switching from high potassium (HK) to low potassium (LK) medium. HSB-13 and NGN-006 were added to LK-treated CGNs at 1, 5 and 25 uM concentrations. Viability was measured 24 h later and compared with control survival in HK). Results are means values from a single experiment performed in duplicate. […] (FIG. 1C) Neuroprotection in cortical neurons (CGNs) induced to die by treatment with homocysteic acid (HCA) which induces oxidative stress. Neurons were treated either with HCA alone or HCA with 25 uM HSB-13 or 5 uM and 25 uM NGN-006 for 18 h. Viability was measured 24 h later and compared with survival of control (untreated cells, Unt). Results are mean values from a single experiment performed in duplicate.
Based on the structure of HSB-13 addition compounds have been synthesized. Among these derivatives was NGN-006 (FIG. 1A). […] Viability was measured 24 h later and compared with control survival in HK). […] Viability was measured 24 h later and compared with survival of control (untreated cells, Unt). […]

Test [22] addresses CDKs. The test can be described thus: Kinome profiling of NGN-006. Format: binding. The following applies: kinases that HSB-13 inhibits.

T16 sequence (O94768 whole entry): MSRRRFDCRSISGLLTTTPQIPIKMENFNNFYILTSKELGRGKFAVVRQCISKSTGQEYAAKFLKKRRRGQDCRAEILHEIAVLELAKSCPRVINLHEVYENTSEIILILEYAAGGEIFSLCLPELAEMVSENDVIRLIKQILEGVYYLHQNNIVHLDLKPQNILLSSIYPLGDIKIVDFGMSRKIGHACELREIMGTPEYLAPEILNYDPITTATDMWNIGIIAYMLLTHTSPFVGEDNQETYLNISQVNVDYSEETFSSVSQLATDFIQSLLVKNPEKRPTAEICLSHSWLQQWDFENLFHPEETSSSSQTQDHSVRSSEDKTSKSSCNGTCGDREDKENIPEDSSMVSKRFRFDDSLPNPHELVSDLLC
T2 sequence (P49760 whole entry): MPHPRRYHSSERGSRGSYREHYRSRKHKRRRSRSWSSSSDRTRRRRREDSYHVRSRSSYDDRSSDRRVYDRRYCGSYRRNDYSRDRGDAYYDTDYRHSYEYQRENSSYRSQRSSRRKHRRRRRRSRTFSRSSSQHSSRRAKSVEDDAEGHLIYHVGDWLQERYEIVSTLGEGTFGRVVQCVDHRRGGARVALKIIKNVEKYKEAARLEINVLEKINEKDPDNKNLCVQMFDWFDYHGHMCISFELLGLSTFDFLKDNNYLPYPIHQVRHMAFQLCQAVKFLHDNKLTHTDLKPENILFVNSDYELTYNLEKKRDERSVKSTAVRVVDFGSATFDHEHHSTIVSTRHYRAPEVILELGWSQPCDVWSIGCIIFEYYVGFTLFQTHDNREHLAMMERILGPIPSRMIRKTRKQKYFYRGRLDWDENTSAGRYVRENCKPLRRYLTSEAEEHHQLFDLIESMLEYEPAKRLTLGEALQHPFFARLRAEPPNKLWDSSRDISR
T12 sequence (Q08345 19-913): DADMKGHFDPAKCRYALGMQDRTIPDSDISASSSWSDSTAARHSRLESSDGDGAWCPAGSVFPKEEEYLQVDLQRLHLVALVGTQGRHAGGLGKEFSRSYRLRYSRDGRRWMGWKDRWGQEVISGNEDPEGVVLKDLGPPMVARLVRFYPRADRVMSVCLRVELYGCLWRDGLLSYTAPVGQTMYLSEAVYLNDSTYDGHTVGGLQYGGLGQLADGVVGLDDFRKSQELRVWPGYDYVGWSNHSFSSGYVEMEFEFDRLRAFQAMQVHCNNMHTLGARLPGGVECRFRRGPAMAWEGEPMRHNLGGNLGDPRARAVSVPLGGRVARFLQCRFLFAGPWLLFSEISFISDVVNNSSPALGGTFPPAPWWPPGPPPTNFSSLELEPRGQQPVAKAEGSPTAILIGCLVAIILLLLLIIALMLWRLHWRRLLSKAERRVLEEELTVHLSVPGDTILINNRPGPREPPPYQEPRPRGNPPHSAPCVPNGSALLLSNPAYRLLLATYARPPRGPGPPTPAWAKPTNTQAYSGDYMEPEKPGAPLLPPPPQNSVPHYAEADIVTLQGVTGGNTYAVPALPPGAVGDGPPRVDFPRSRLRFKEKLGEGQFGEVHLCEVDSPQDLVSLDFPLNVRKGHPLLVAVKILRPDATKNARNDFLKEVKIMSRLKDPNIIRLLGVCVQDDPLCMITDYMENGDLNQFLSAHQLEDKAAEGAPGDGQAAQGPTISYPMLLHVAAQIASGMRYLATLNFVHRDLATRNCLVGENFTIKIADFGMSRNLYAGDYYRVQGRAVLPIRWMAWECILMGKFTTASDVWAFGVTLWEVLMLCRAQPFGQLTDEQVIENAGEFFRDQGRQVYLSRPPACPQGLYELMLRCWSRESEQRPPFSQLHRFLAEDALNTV
T1 sequence (O14578 whole entry): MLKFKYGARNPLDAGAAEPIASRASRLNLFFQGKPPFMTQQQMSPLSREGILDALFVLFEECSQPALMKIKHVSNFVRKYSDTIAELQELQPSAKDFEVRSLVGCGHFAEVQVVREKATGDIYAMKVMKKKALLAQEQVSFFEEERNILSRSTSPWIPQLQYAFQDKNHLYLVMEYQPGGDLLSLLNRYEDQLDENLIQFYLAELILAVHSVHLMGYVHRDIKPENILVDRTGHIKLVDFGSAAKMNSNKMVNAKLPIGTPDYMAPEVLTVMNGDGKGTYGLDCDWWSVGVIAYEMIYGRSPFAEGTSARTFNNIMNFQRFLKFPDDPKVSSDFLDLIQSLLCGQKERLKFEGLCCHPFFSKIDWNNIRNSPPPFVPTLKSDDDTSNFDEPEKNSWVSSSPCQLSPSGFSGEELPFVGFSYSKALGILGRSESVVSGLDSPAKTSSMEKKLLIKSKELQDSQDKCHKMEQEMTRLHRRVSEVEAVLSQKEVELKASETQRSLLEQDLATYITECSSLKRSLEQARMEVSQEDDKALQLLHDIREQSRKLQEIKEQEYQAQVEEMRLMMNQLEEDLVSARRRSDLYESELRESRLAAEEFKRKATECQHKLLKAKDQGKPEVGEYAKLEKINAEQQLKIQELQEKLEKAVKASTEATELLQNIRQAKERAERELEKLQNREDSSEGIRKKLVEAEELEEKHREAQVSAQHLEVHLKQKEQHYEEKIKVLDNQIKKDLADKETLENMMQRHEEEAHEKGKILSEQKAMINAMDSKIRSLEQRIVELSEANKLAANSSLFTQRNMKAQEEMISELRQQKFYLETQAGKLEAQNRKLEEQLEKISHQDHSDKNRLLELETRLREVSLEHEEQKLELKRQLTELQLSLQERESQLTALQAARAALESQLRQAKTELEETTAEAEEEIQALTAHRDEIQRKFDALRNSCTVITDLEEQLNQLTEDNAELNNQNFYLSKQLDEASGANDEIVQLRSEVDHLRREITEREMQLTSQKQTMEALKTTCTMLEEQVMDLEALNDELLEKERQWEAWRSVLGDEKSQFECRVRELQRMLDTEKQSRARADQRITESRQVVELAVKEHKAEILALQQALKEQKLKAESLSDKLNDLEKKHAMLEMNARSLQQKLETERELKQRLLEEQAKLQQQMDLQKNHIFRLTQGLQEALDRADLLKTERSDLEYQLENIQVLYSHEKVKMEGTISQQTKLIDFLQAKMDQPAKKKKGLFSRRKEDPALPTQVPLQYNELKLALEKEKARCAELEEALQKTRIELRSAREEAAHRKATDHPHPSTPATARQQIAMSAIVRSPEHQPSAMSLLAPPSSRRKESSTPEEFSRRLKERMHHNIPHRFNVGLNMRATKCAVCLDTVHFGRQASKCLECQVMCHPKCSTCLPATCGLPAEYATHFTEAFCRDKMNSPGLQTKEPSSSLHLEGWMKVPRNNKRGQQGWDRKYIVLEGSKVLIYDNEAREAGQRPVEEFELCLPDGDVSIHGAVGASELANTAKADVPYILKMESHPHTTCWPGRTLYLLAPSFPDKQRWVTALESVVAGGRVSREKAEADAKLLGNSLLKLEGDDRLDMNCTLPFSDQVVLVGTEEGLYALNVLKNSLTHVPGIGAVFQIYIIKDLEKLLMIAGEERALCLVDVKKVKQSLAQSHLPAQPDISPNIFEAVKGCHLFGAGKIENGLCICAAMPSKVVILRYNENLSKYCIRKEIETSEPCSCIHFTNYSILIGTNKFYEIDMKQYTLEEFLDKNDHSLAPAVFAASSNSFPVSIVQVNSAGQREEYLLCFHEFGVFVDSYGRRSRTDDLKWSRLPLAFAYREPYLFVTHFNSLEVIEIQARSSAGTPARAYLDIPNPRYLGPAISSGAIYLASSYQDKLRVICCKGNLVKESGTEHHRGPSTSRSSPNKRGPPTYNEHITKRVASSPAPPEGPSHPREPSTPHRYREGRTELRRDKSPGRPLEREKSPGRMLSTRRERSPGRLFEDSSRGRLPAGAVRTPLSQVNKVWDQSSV
T18 sequence (P00533 25-1210 G719C): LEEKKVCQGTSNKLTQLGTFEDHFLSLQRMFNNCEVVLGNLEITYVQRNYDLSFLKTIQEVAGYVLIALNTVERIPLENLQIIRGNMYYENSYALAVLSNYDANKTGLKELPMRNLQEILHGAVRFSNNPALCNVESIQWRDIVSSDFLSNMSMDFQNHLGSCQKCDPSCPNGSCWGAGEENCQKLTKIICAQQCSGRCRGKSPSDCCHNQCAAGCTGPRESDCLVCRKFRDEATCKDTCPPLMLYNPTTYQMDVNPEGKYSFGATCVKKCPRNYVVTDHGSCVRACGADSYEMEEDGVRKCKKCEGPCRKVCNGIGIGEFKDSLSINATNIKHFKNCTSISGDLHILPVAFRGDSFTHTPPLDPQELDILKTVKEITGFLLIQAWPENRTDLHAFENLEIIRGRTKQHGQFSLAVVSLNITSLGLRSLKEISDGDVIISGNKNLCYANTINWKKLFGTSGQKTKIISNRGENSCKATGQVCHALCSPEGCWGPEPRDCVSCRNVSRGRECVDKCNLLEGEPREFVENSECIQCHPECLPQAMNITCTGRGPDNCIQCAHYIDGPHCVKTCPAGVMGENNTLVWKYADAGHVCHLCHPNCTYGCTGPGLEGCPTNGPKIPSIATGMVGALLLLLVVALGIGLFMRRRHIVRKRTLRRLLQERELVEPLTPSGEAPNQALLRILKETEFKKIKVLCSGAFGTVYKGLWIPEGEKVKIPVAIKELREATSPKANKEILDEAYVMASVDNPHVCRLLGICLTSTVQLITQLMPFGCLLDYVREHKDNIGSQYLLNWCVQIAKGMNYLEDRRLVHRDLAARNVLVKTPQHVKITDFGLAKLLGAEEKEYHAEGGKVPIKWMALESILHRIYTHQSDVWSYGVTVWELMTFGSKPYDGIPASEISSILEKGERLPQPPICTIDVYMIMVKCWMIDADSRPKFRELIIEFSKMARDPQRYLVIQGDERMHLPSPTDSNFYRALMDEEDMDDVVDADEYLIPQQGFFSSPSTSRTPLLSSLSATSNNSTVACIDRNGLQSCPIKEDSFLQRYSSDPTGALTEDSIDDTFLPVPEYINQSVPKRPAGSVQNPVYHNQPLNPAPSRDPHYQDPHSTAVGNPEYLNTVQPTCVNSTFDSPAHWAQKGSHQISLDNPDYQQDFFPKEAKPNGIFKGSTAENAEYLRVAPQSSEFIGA

Consider `Nc1ccc2c(c1)NC(=O)/C(=C/c1ccc(Cl)cc1)O2` [NGN-006, (2Z)-6-amino-2-[(4-chlorophenyl)methylidene]-3,4-dihydro-2H-1,4-benzoxazin-3-one], for which the remaining binding at 1 µM turned out to be 100% in test [1]; 100% in test [2]; 100% in test [3]; 100% in test [4]; 84% in [5]; 100% in test [6]. Further, the remaining binding at 1 µM in [7] was found to be 100%; in [8], 86%; in [9] it was 88%; in test [10], 100%; in test [11] it was 100%; in [12], 100%. Also, the remaining binding at 1 µM is 100% in test [13]; 100% in test [14]; 26% in test [15]; 83% in test [16] (KINOMEscan DRAK2 (Entrez STK17B), 1 uM, read-out: % control); 100% in test [17]; 100% in test [18]. Further, the figures for the remaining binding at 1 µM in [19] and in [20] were 98% and 100%, respectively. Further, the “kinase inhibition (in words)” value in test [16] (closely-related DRAK2 protein) is given as “not inhibited”; in test [22] it was “does not inhibit”. In [21], the “neuroprotection (viability)” value is “protective”.
